These results are taken from patent publication US20160120864A1, “Novel Pyrrole Derivatives” (priority 2013, published 2016).

For orientation: IC50 means the point on the concentration scale where inhibition reaches its midpoint. Broadly, the solubility is the concentration that dissolves in the medium under given conditions.

The structures appear in SMILES notation. Where a name gives a salt, the structure may show the parent alone.

Series [1] deals with pneumolysin (Streptococcus pneumoniae serotype 2, UniProt Q04IN8). Nature of the series: Inhibition of the haemolytic activity of pneumolysin (sheep erythrocytes). Type of series: cell-based. The protocol: A. Primary In Vitro Assay: Inhibition of the Haemolytic Activity of Pneumolysin
Chain of pneumolysin (Q04IN8 whole entry): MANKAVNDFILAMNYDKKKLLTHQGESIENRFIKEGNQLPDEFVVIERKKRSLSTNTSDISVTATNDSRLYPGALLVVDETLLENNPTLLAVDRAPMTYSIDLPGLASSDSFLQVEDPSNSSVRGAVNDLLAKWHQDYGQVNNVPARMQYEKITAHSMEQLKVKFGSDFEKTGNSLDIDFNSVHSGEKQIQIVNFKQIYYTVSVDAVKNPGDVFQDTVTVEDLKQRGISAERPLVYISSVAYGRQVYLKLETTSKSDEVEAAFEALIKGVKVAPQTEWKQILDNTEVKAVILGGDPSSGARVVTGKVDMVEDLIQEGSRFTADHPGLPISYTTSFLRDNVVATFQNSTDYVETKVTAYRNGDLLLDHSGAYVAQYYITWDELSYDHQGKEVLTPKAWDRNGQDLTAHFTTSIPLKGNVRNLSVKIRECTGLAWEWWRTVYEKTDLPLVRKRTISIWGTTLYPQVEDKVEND
The basis of this assay is that when pneumolysin is added to red blood cells, it induces their lysis and leads to the release of haemoglobin. In the presence of an inhibitory compound, pneumolysin-induced lysis is abolished, the red blood cells pellet at the bottom of the microtitre plate well and the supernatant is clear. However, if the compound is not inhibitory, the red blood cells are lysed and haemoglobin is released into the supernatant.
Test compound solutions (typically at 5 mM in DMSO) were diluted 1:1 in 100% DMSO. The compounds were then two-fold serially diluted in 100% DMSO across 11 wells of 96-well round-bottomed microtitre plate. PBS was then added to all the wells to achieve a 1:10 dilution of the compound in PBS. Pneumolysin was then added at a concentration equal to its LD100. Plates were then incubated at 37° C. for 30-40 min. After the incubation period, an equal volume of 4% (v/v) sheep erythrocyte suspension was added to each well and the plates incubated again at 37° C., for at least 30 min. […] Following the incubation with the erythrocytes, the Absorbance at 595 nm of each well was measured and the data used to determine the IC50 for each test compound. The IC50 values were determined using non-linear regression curve fitting. […]

Series [2] can be described thus: physchem. Type of series: physicochemical. Particulars: buffer; PBS, 37.5° C.; read-out: Chemical stability in aqueous formulation (t½) (converted). The protocol: Stability studies were carried out by dissolving 1-2 mg of compound in DMSO (1 mL) followed by addition of 0.4 mL of the resulting solution to stirred PBS solution (9.6 mL) at 37.5° C. A sample (ca. 0.5 mL) was immediately taken for HPLC analysis. Further samples were then taken for analysis at various timepoints thereafter. Half-lives were determined from the decrease in concentration of compound with respect to time.
Stability studies were performed by dissolving 1-2 mg of compound in DMSO (1 ml) followed by addition of 0.4 ml of the resulting solution to stirred PBS (9.6 ml) at 37.5° C. A sample (-j 0.5 ml) was immediately taken for HPLC analysis. Further samples were then taken for analysis at various time-points thereafter. Half-lives were determined from the decrease in concentration of compound with respect to time.

The nature of series [3]: physchem. In kind it is physicochemical. Particulars: for solubility: aqueous buffer, thermodynamic from solid, PBS pH 7.2; for Solubility in aqueous formulations compatible with intravenous dosing (in words): aqueous formulations at the desired concentrations. The protocol: PBS solutions for solubility and stability studies were prepared by dissolving 1 Oxoid™ tablet (obtained from Thermo Scientific) in deionised water (100 mL).
Solubility studies were performed by charging a vial with 5-10 mg of compound followed by the addition of PBS solution to achieve a concentration of 100 mg/ml. If solubility was not observed, the solution was diluted to concentrations of 50 mg/ml, 25 mg/ml and 4 mg/ml consecutively until complete solubility was observed.

The format of series [4] is in vitro ADME. Particulars: mouse plasma, 37° C., starting 10 μM. The protocol: The samples were then analysed by LC-MS/MS to obtain the amount of active compound appearing and prodrug derivative remaining over time.
The prodrug derivative of the invention was assessed in mouse plasma stability assay at a concentration of 10 μM. Test compounds were diluted in DMSO to a final stock concentration of 10 mM. For the purpose of the assay, the stocks prepared were further diluted in DMSO to a concentration of 400 μM and 5 μL were added to 195 μL of mouse plasma (pH 7.4) and then incubated at 37° C. The final concentration of DMSO in the plate was 2.5% (v/v). Reactions were terminated at 0, 15, 30, 60 and 120 min after incubation by adding 400 μL of acetonitrile containing 0.55 μM metoprolol and 1% (v/v) formic acid. The plate was then centrifuged at 3000 rpm, for 45 min, at 4° C. 80 μL of supernatant were transferred into a conical bottom 96 well glass coated plate. 40 μL of water were added prior to analysis for prodrug derivative and active species by LC-MS/MS. This assay was performed by a contract research organisation, Cyprotex Discovery Limited, UK, at the request of the inventors at Leicester.
The quantification of the prodrug compound remaining and the parent active compound appearing was performed as follows:
(1) The parent active compound was quantified using a 6 point calibration curve prepared in deactivated mouse plasma. (2) The percentage of prodrug compound remaining at each time point relative to 0 min sample was calculated from LC-MS/MS peak area ratios (compound peak area/internal standard peak area). This percentage was then used to determine the concentration of the prodrug compound at each time point in reference to the starting concentration (10 μM) at time 0 min.

On to `COc1ccc(-n2c(C(=O)N3CCN(C)CC3)c(O)c(O)c2C(=O)N2CCN(C)CC2)cc1` [UL7-001, (3,4-Dihydroxy-1-(4-methoxyphenyl)-1H-pyrrole-2,5-diyl)bis((4-methylpiperazin-1-yl)methanone)], for which, in series [1], the IC50 was 0.3 µM. Besides, the half-life in series [2] was less than 0.5 h. In addition, in series [3], the solubility is not below 100 mg/mL and the “Solubility in aqueous formulations compatible with intravenous dosing (in words)” value was “readily soluble”.

`COc1ccc(-n2c(C(=O)N3CCN(C)CC3)c(OC(=O)C(C)C)c(OC(=O)C(C)C)c2C(=O)N2CCN(C)CC2)cc1` [UL7-002, 1-(4-Methoxyphenyl)-2,5-bis(4-methylpiperazine-1-carbonyl)-1H-pyrrole-3,4-diyl bis(2-methylpropanoate)dihydrochloride] showed an IC50 in series [1] of 6.8 µM. For the same compound, the half-life in series [2] is 47 h. In series [3], the solubility is not below 100 mg/mL and the “Solubility in aqueous formulations compatible with intravenous dosing (in words)” value was “readily soluble”. The “Prodrug (UL7-002) concentration remaining, t0 min.” value in series [4] (0 min) turned out to be 10.00 µM. Also, the “Prodrug (UL7-002) concentration remaining, t15 min.” value in series [4] (15 min) was 0.00 µM. Also, in series [4] (30 min), the “Prodrug (UL7-002) concentration remaining, t30 min.” value came to 0.01 µM. The “Prodrug (UL7-002) concentration remaining, t60 min.” value in series [4] (60 min) is 0.00 µM. For the same compound, the “Prodrug (UL7-002) concentration remaining, t120 min.” value in series [4] (120 min) worked out at 0.00 µM.
